{"source": "paper PMC5991599", "about": "“Anti‐tumor efficacy of a novel CLK inhibitor via targeting RNA splicing and MYC‐dependent vulnerability” (EMBO Molecular Medicine, 2018)", "key": {"[1]": {"molecular_target": "HIPK2 (Homo sapiens, UniProt Q9H2X6)", "sequence (Q9H2X6 whole entry)": "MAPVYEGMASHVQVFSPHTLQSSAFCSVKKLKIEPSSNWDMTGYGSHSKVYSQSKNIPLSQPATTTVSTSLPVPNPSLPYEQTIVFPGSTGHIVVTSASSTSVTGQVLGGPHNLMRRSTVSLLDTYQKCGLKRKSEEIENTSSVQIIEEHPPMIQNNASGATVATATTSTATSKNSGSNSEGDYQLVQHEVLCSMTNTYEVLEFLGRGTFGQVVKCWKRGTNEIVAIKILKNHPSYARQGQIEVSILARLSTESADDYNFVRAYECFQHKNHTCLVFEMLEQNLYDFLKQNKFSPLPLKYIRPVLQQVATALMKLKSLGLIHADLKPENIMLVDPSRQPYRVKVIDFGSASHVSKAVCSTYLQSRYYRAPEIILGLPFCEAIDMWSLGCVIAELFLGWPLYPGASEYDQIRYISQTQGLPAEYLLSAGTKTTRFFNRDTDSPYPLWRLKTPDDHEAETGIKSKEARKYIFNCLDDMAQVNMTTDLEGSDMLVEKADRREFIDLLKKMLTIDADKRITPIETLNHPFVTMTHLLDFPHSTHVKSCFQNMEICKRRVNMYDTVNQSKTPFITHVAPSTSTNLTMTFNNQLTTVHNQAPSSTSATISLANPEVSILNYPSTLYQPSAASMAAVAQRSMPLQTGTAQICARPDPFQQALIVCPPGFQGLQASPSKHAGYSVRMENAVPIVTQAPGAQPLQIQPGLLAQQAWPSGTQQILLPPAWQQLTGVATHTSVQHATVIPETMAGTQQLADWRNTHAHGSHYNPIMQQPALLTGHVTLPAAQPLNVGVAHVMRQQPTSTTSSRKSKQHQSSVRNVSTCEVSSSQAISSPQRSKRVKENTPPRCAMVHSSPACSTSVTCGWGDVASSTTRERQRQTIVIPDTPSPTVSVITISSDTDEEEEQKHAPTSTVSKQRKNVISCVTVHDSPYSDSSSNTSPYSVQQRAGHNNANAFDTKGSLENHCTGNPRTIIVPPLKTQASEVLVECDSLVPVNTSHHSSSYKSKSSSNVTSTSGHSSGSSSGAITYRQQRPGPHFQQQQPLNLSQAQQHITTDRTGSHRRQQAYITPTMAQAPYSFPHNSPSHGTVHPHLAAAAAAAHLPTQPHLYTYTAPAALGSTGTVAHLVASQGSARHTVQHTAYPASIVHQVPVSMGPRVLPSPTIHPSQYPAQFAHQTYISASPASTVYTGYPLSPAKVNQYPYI", "assay": "Immunoblotting of pS46 p53, direct phosphorylation site of HIPK2, in cells", "format": "cell-based", "conditions": "up to 1000 nmol/L; immunoblot from Fig 2A samples (MDA-MB-468, 6 h)", "from_the_text": "EMBO Molecular Medicine - Peer Review Process File\nPRS6KB1 was observed by RNAi of CLK2 and T-025.\nIt had already been reported that ASs induced by […]\nthat T-025 and depletion of CLKs caused a similar splicing effect.\nFurthermore, T3, another CLK […]\nand increased MYC-dependent vulnerability (Fig EV4). […]\nphosphorylation, at a direct phosphorylation site of HIPK2, up to 1000 nmol/L (see below, from Fig.\nIn quantifying the bands of pCLK2, the background of this immunoblotting around 50 kDa was relatively high and the band was shifted in the T-025 treated samples (below); thus, we could not […]\nBF is undefined and ∆PSI is not clearly defined. If ∆PSI is really \"percentage splice-in\", none of the effects is significant. The normalization of ∆PSI is unclear. In Figure 2E, the difference between […]\nAccording to the MISO software, the Bayer Factor (BF) represents the weight of the evidence in the data in favor of differential expression versus the weight of evidence not in favor. For example, a © European Molecular Biology Organization 13 […]"}, "[2]": {"molecular_target": "T1, FLT3 D835H (Homo sapiens, UniProt P36888, D835H)", "T1 construct": "purchased DiscoverX Corporation (Fremont, CA, USA)", "assay": "KINOMEScan-based kinase selectivity assay", "format": "binding", "experimental": "(§1) The KINOMEScan‐based kinase selectivity assay was performed at the DiscoverX Corporation (Fremont, CA, USA). The panel of growth inhibition assay and subsequent bioinformatics analysis (Fig EV1) were performed at Eurofins Inc. (St. […] Details of the procedures of cell proliferation assay, caspase‐3/7 activity assay, immunoblotting, and immunohistochemistry are described in Appendix Supplementary Methods."}, "[3]": {"molecular_target": "T2, DYRK1A (Homo sapiens, UniProt Q13627)", "T2 construct": "purchased DiscoverX Corporation (Fremont, CA, USA)", "assay": "KINOMEScan-based kinase selectivity assay", "format": "binding", "experimental": "as §1"}, "[4]": {"molecular_target": "T3, CLK1 (Homo sapiens, UniProt P49759)", "T3 sequence (P49759 whole entry)": "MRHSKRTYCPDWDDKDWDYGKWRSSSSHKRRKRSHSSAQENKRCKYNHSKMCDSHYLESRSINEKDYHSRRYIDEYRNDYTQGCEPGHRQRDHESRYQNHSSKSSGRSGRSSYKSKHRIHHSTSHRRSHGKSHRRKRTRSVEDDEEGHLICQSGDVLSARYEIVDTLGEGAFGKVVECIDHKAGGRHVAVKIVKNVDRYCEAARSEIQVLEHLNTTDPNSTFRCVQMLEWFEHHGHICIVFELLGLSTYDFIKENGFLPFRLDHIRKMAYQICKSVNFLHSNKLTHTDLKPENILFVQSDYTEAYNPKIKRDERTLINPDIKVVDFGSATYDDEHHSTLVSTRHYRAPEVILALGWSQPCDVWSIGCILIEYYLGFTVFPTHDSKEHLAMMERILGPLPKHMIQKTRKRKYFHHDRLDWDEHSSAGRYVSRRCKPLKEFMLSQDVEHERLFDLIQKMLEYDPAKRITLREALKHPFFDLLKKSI", "assay": "KINOMEScan-based kinase selectivity assay", "format": "binding", "experimental": "as §1"}, "[5]": {"molecular_target": "T4, HIPK1 (Homo sapiens, UniProt Q86Z02)", "T4 construct": "purchased DiscoverX Corporation (Fremont, CA, USA)", "T4 sequence (Q86Z02 whole entry)": "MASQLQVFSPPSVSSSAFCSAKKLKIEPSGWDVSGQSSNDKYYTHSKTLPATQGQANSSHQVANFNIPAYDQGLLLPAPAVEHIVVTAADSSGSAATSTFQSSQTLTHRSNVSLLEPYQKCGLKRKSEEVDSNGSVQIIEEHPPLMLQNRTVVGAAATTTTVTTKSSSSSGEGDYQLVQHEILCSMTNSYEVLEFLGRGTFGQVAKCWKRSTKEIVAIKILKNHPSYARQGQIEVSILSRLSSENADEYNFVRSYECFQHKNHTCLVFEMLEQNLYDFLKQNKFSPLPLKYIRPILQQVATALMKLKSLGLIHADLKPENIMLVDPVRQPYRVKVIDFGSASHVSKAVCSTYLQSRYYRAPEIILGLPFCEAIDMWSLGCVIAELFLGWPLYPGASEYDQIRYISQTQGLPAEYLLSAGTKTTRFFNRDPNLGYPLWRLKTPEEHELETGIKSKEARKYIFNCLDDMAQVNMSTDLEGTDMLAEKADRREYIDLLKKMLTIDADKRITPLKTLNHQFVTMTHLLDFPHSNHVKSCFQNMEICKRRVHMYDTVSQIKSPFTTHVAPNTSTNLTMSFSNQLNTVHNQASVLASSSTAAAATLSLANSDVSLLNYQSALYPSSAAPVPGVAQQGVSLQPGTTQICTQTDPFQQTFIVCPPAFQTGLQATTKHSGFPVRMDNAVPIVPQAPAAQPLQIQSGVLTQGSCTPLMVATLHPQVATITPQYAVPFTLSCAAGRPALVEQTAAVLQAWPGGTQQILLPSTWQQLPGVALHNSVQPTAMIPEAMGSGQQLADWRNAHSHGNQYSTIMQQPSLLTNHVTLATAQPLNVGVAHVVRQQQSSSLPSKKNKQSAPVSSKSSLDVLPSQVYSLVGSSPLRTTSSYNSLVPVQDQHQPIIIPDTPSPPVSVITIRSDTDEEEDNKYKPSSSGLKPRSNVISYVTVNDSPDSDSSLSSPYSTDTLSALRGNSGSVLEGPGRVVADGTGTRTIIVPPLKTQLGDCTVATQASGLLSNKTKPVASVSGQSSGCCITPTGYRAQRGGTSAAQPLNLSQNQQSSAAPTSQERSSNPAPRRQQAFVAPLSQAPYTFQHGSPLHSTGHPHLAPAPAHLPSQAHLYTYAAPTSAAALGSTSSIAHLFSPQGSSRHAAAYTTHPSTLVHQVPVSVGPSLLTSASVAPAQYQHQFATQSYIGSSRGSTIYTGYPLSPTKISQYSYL", "assay": "KINOMEScan-based kinase selectivity assay", "format": "binding", "experimental": "as §1"}, "[6]": {"molecular_target": "T5, CLK3 (Homo sapiens, UniProt P49761)", "T5 sequence (P49761 whole entry)": "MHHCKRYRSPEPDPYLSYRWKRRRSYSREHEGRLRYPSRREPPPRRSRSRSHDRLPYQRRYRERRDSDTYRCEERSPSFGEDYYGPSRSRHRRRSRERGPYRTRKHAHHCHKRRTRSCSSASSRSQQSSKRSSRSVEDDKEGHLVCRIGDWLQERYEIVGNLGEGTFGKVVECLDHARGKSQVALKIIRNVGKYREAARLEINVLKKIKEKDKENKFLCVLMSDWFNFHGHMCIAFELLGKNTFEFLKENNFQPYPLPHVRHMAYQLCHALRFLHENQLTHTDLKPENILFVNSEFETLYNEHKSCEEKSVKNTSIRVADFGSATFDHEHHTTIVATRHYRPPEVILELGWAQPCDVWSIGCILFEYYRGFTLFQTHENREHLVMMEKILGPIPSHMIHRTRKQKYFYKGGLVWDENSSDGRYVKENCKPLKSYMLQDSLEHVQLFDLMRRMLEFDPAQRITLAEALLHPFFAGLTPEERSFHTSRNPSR", "assay": "KINOMEScan-based kinase selectivity assay", "format": "binding", "experimental": "as §1"}, "[7]": {"molecular_target": "T6, CLK2 (Homo sapiens, UniProt P49760)", "T6 sequence (P49760 whole entry)": "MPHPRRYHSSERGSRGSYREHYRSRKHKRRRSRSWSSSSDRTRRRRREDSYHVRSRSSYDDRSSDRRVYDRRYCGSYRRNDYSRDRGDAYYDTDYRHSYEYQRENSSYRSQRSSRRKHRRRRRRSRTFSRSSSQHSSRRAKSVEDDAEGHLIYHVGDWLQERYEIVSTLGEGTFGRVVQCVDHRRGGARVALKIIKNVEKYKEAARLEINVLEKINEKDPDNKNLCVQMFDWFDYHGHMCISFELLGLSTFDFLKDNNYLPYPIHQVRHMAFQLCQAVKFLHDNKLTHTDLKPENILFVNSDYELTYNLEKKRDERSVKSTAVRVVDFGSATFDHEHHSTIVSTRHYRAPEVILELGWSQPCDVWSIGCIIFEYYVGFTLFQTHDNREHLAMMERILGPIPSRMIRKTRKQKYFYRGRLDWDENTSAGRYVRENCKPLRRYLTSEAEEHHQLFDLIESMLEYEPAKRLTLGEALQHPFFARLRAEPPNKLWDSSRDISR", "assay": "KINOMEScan-based kinase selectivity assay", "format": "binding", "experimental": "as §1"}, "[8]": {"molecular_target": "T7, IRAK4 (Homo sapiens, UniProt Q9NWZ3)", "T7 construct": "purchased DiscoverX Corporation (Fremont, CA, USA)", "T7 sequence (Q9NWZ3 whole entry)": "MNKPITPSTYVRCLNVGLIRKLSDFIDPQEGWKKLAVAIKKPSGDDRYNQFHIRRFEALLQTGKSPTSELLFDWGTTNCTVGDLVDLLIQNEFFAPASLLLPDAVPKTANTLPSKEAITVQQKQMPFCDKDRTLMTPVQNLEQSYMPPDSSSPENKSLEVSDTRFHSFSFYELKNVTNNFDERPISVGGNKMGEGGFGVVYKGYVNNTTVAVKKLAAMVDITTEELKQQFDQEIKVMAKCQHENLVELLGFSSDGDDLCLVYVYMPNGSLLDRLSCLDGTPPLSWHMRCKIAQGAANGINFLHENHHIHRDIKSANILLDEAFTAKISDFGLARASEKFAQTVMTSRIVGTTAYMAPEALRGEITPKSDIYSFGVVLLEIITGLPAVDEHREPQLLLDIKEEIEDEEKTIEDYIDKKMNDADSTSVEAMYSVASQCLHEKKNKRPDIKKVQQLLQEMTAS", "assay": "KINOMEScan-based kinase selectivity assay", "format": "binding", "experimental": "as §1"}, "[9]": {"molecular_target": "T8, ERK8 (Homo sapiens, UniProt Q8TD08)", "T8 construct": "purchased DiscoverX Corporation (Fremont, CA, USA)", "T8 sequence (Q8TD08 whole entry)": "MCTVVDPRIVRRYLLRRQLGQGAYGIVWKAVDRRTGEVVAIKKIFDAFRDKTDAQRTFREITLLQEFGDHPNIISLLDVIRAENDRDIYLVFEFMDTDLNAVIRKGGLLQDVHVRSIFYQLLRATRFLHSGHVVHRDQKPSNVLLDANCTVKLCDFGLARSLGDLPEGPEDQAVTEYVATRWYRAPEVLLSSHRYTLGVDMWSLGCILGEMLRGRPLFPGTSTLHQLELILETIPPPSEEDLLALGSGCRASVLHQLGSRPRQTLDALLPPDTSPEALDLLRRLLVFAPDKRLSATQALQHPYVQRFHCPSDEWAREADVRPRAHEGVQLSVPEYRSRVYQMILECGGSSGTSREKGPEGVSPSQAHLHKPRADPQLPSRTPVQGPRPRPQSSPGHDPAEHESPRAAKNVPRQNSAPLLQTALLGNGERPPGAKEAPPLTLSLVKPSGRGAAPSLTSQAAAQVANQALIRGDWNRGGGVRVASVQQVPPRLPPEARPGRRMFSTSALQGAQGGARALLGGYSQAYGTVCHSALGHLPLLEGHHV", "assay": "KINOMEScan-based kinase selectivity assay", "format": "binding", "experimental": "as §1"}, "[10]": {"tested_on": "xenografts derived from AML patient (PDX)", "assay": "Efficacy study in patient-derived xenograft model of acute myeloid leukemia", "format": "in vivo, NOG mice", "conditions": "25 and 50 mg/kg, twice daily at twice weekly", "from_the_text": "To establish the patient‐derived xenograft model, a small piece of tumor purchased from Dr. Naoe at Nagoya University was subcutaneously inoculated into NOG mice (7‐ to 8‐week‐old females, CIEA Japan, Inc., Kanagawa, Japan). After three rounds of in vivo propagation, tumors were used for efficacy assessment.\n(§2) Tumor volume=long diameter×short diameter×short diameter×(1/2)\n(§3) Mice having a tumor of size approximately 200 mm^3 were used in efficacy or in vivo pharmacodynamics studies. T‐025 was dissolved in 0.5% methylcellulose solution. For the efficacy study, after randomized grouping, mice were treated with T‐025 twice daily once or twice weekly for 2 or 3 weeks. The mouse tumor volume and body weight were measured every 2–3 days."}, "[11]": {"molecular_target": "T3, CLK1", "assay": "Enzymatic assay", "format": "biochemical", "conditions": "read-out: IC50 (nmol/L) CLK1", "from_the_text": "(§4) Appendix Supplemental Methods"}, "[12]": {"molecular_target": "T5, CLK3", "assay": "Enzymatic assay", "format": "biochemical", "conditions": "read-out: IC50 (nmol/L) CLK3", "from_the_text": "as §4"}, "[13]": {"molecular_target": "T6, CLK2", "assay": "Enzymatic assay", "format": "biochemical", "conditions": "read-out: IC50 (nmol/L) CLK2", "from_the_text": "as §4"}, "[14]": {"molecular_target": "DYRK1B (Homo sapiens, UniProt Q9Y463)", "assay": "Enzymatic assay", "format": "biochemical", "conditions": "read-out: IC50 (nmol/L) DYRK1B", "from_the_text": "as §4"}, "[15]": {"tested_on": "MDA-MB-468 xenograft", "assay": "Efficacy study in MDA-MB-468 xenograft model", "format": "in vivo, Balb/c nude mice", "conditions": "50 mg/kg oral, twice daily on 2 days per week", "experimental": "When xenografted tumors grew to a sufficient volume, the tumor diameter was measured and its volume was calculated as follows:\nas §2, §3"}}}
{"smiles": "CNc1nc(NCc2ncccn2)c2c(-c3ccc4ncccc4c3)c[nH]c2n1", "note": "[T-025, N ^2‐methyl‐N ^4‐[pyrimidin‐2‐ylmethyl]‐5‐[quinolin‐6‐yl]‐7H‐pyrrolo[2,3‐d]pyrimidine‐2,4‐diamine]", "values": [{"measurement": "inhibition of HIPK2 in cells (pS46 p53 phosphorylation)", "setting": "[1]", "result": "did not inhibit HIPK2"}, {"measurement": "Kd", "setting": "[2]", "result": 94, "unit": "nM"}, {"measurement": "inhibition at 0.3 µM", "setting": "[2]; 300 nmol/L, n = 2", "result": 98.8, "unit": "%"}, {"measurement": "Kd", "setting": "[3]", "result": 0.074, "unit": "nM"}, {"measurement": "inhibition at 0.3 µM", "setting": "[3]; 300 nmol/L, n = 2", "result": 100, "unit": "%"}, {"measurement": "Kd", "setting": "[4]", "result": 4.8, "unit": "nM"}, {"measurement": "inhibition at 0.3 µM", "setting": "[4]; 300 nmol/L, n = 2", "result": 99.4, "unit": "%"}, {"measurement": "Kd", "setting": "[5]", "result": 55, "unit": "nM"}, {"measurement": "inhibition at 0.3 µM", "setting": "[5]; 300 nmol/L, n = 2", "result": 94.6, "unit": "%"}, {"measurement": "Kd", "setting": "[6]", "result": 6.5, "unit": "nM"}, {"measurement": "inhibition at 0.3 µM", "setting": "[6]; 300 nmol/L, n = 2", "result": 90.2, "unit": "%"}, {"measurement": "Kd", "setting": "[7]", "result": 0.096, "unit": "nM"}, {"measurement": "inhibition at 0.3 µM", "setting": "[7]; 300 nmol/L, n = 2", "result": 93.1, "unit": "%"}, {"measurement": "Kd", "setting": "[8]", "result": 54, "unit": "nM"}, {"measurement": "inhibition at 0.3 µM", "setting": "[8]; 300 nmol/L, n = 2", "result": 94.8, "unit": "%"}, {"measurement": "Kd", "setting": "[9]", "result": 140, "unit": "nM"}, {"measurement": "inhibition at 0.3 µM", "setting": "[9]; 300 nmol/L, n = 2", "result": 94.8, "unit": "%"}, {"measurement": "anti-tumor efficacy, tumor volume", "setting": "[10]", "result": "profound anti‐tumor efficacies"}, {"measurement": "IC50", "setting": "[11]", "result": 0.93, "unit": "nmol/L"}, {"measurement": "IC50", "setting": "[12]", "result": 14, "unit": "nmol/L"}, {"measurement": "IC50", "setting": "[13]", "result": 1, "unit": "nmol/L"}, {"measurement": "IC50", "setting": "[14]", "result": 1.5, "unit": "nmol/L"}, {"measurement": "nadir body weight loss", "setting": "[15]; 3 weeks, near the maximum tolerated dose", "result": "< 10", "unit": "%"}, {"measurement": "anti-tumor effect, tumor volume", "setting": "[15]; end of 3-week treatment cycle", "result": "tumor volumes had shrunk relative to the initial volumes"}]}
